The test has as its system early-stage triple negative breast cancer. The experiment in a line: Phase 2 randomized open label study of veliparib and carboplatin with standard neoadjuvant chemotherapy; pathologic complete response. It is filed as in vivo, human. From the text:
Pathological Complete Response (pCR) is the absence of any residual invasive cancer on hematoxylin and eosin evaluation of the resected breast specimen and any resected lymph node tissue following completion of neoadjuvant systemic therapy.
This example is a Phase 2, interventional, randomized, open label study evaluating the safety and efficacy of veliparib and carboplatin administered concurrently with standard chemotherapy in subjects with early-stage triple negative breast cancer.
Patients received 50 mg po bid during the 12 weekly treatment cycles post-randomization and carboplatin: AUC 6 IV every three weeks for […] during the 12 weekly treatment cycles post-randomization with standard chemotherapy or alternatively standard chemotherapy alone. Standard chemotherapy was paclitaxel: 80 mg/m^2 IV during the 12 weekly treatment cycles post randomization; doxorubicin: 60 mg/m^2 IV after completion of the 12 weekly treatment cycles and prior to surgery for weeks 13-16; cyclophosphamide: 600 mg/m^2 IV after completion of the 12 weekly treatment cycles and prior to surgery for weeks 13-16.
Determine whether adding veliparib and carboplatin to standard neoadjuvant medications increases the probability of pathologic complete response (pCR) over standard neoadjuvant chemotherapy for triple negative breast cancer. […]

As to `C[C@]1(c2nc3c(C(N)=O)cccc3[nH]2)CCCN1` [Veliparib arm, 2-[(2R)-2-methylpyrrolidin-2-yl]-1H-benzimidazole-4-carboxamide], the pCR % (patients with triple negative breast cancer, neoadjuvant therapy followed by surgery, veliparib arm: veliparib 50 mg po bid + carboplatin AUC 6 IV during the 12 weekly cycles, added to standard chemotherapy (paclitaxel, then doxorubicin/cyclophosphamide), control arm: standard chemotherapy alone) is 56% (n = 39). In addition, the “effect on number of women achieving pCR status” value (veliparib and carboplatin added to standard of care, neoadjuvant setting, early triple negative breast cancer) was “increases the number of women that achieve pCR status”.

These data come from patent US9486466B2, “Veliparib in combination with carboplatin for the treatment of triple negative breast cancer” (AbbVie Inc., priority 2013, dated 2016).
